Measurements reported in US9963462B2 (priority 2015, dated 2018).
pIC50: −log10 of the molar value.

Assays:
[1] = target: SNAP-hSPR (sepiapterin reductase, SPR) (Homo sapiens, UniProt P35270); assay: biochemical; format: binding; conditions: terbium labelled SNAP-hSPR / SSZ labelled SNAP-EGFP; read-out: hTR-FRET IC50
[2] = system: BH4 levels in SK-N-BE (2) cells; assay: SKN-N-BE (2) cellular assay, BH4 levels by LC-MS; format: cell-based; conditions: Homo sapiens, SKNBE2, read-out: SK-N-BE(2) IC50, SK-N-BE (2) cells, BH4 levels by LC-MS
[3] = system: BH4 production in human peripheral blood mononuclear cells (PBMCs); assay: hPBMC assay, inhibition of BH4 production by LC-MS (anti-CD3/anti-CD28 stimulated); format: cell-based; conditions: PBMC, read-out: hPBMC IC50
Description: hPBMC Assay: PBMCs were either purchased or isolated from fresh human blood and used either as a fresh preparation or frozen for later use. The assay system was prepared by pre-treating the assay plates overnight with a solution containing anti-human CD3 antibody. Human PBMCs were suspended in assay medium and plated into the assay plates at a density of 1-4×10^5 cells per well. The desired concentration of the test compound was added to each well. A solution of human anti-CD28 antibody was also added to each well. Plates were incubated for 12-48 hours at 37° C. and 5% CO2. Assay plates were centrifuged for 5-15 minutes at 1-3000 RMP and supernatants were removed. The cells were lysed, sealed and used directly or frozen at −80° C. LC-MS was used to quantify the amount of inhibition of BH4 production.
PBMCs were either purchased or isolated from fresh human blood and used either as a fresh preparation or frozen for later use. The assay system was prepared by pre-treating the assay plates overnight with a solution containing anti-human CD3 antibody. Human PBMCs were suspended in assay medium and plated into the assay plates at a density of 1-4×10^5 cells per well. The desired concentration of the test compound was added to each well. A solution of human anti-CD28 antibody was also added to each well. Plates are incubated for 12-48 hours at 37° C. and 5% CO2. Assay plates were centrifuged for 5-15 minutes at 1-3000 RMP and supernatants were removed. The cells were lysed, sealed and used directly or frozen at −80° C.

Chain of SNAP-hSPR (sepiapterin reductase, SPR) (P35270 whole entry): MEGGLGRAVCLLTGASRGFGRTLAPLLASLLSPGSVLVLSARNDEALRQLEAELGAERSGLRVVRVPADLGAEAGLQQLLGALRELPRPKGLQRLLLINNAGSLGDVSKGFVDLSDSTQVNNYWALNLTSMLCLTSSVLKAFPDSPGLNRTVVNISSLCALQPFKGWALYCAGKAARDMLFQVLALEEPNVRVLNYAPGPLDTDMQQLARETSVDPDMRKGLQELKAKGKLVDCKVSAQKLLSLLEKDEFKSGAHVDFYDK

Molecule `Cc1cc(=O)[nH]c(-n2ncc(C(=O)N3CCc4ccccc4C3)c2C)n1` [Q-0279, 6-methyl-2-[5-methyl-4-(1,2,3,4-tetrahydroisoquinoline-2-carbonyl)-1H-pyrazol-1-yl]-3,4-dihydropyrimidin-4-one] has a pIC50 [1] of 8.15, a pIC50 [2] of 6.00 and a pIC50 [3] of 5.66.
For `Cc1c(C(=O)N2CCc3ccccc3C2)cnn1-c1nc2ccsc2c(=O)[nH]1` [Q-0354], the pIC50 [1] was 8.70, the pIC50 [2] was 7.00 and the pIC50 [3] was 6.42.
In the case of `Cc1c(C(=O)N2CCc3ccccc3C2)cnn1-c1nc2cc[nH]c2c(=O)[nH]1` [Q-0378], the pIC50 [1] was 7.52, the pIC50 [2] was 5.39 and the pIC50 [3] was 6.13.
For `Cc1c(C(=O)N2CCC(C(F)(F)F)CC2)cnn1-c1nc2ccsc2c(=O)[nH]1` [Q-0379], the pIC50 [1] was 8.70, the pIC50 [2] was 7.08 and the pIC50 [3] was 6.55.
In the case of `Cc1c(C(=O)N2CCC(C(F)(F)F)CC2)cnn1-c1nc2c(c(=O)[nH]1)CCC2` [Q-0418], the pIC50 [1] was 8.70, the pIC50 [2] was 7.30 and the pIC50 [3] was 7.49.
`Cc1c(C(=O)N2CCC(C(F)(F)F)CC2C)cnn1-c1nc2c(c(=O)[nH]1)CCC2` (centres unmarked) [Q-0423] gave a pIC50 [1] of 8.30, a pIC50 [2] of 7.00 and a pIC50 [3] of 6.39.
With `Cc1c(C(=O)N2CCC(C(F)(F)F)CC2)cnn1-c1nc2[nH]ccc2c(=O)[nH]1` [Q-0427] the pIC50 [1] was 8.05, the pIC50 [2] was 5.51 and the pIC50 [3] was 5.96.
`Cc1c(C(=O)N2CCC(C3CC3)CC2)cnn1-c1nc2c(c(=O)[nH]1)CCC2` [Q-0451] gave a pIC50 [1] of 8.70, a pIC50 [2] of 7.72 and a pIC50 [3] of 7.89.
`O=C(c1cnn(-c2nc3c(c(=O)[nH]2)COC3)c1)N1CCC(C(F)(F)F)CC1` [Q-0453, 2-{4-[4-(trifluoromethyL)piperidine-1-carbonyl]-1H-pyrazol-1-yl}-3H,4H,5H,7H-furo[3,4-d]pyrimidin-4-one] gave a pIC50 [1] of 8.22, a pIC50 [2] of 5.80 and a pIC50 [3] of 5.89.
Work on `O=C(c1cnn(-c2nn3cccc3c(=O)[nH]2)c1)N1CCC(C(F)(F)F)CC1` [Q-0467, 2-{4-[4-(trifluoromethyl)piperidine-1-carbonyl]-1H-pyrazol-1-yl}-3H,4H-pyrrolo[2,1f][1,2,4]triazin-4-one] yielded a pIC50 [1] of 8.70, a pIC50 [2] of 7.09 and a pIC50 [3] of 7.00.
Molecule `Cc1c(C(=O)N2CCC(C)(C#N)CC2)cnn1-c1nc2c(c(=O)[nH]1)CCC2` [Q-0518] has a pIC50 [1] of 8.52, a pIC50 [2] of 6.30 and a pIC50 [3] of 7.49.
With `CCC1(C#N)CCN(C(=O)c2cnn(-c3nc4c(c(=O)[nH]3)CCC4)c2C)CC1` [Q-0519] the pIC50 [1] was 8.52, the pIC50 [2] was 7.28 and the pIC50 [3] was 6.92.
Work on `O=C(c1cnn(-c2nn3c(F)ccc3c(=O)[nH]2)c1)N1CCC(C(F)(F)F)CC1` [Q-0525, 7-fluoro-2-(4-(4-(trifluoromethyl)piperidine-1-carbonyl)-1H-pyrazol-1-yl)pyrrolo[1,2-f][1,2,4]triazin-4(3H)-one] yielded a pIC50 [1] of 9.00, a pIC50 [2] of 7.72 and a pIC50 [3] of 7.62.
Molecule `Cc1c(C(=O)N2CC[C@@H](N(C)C(=O)OC(C)(C)C)C2)cnn1-c1nc2c(c(=O)[nH]1)CCC2` [Q-0571] has a pIC50 [1] of 8.52, a pIC50 [2] of 7.14 and a pIC50 [3] of 7.17.
`CCC(C#N)C1CCN(C(=O)c2cnn(-c3nc4c(c(=O)[nH]3)CCC4)c2C)CC1` (centres unmarked) [Q-0572] showed a pIC50 [1] of 8.70, a pIC50 [2] of 7.44 and a pIC50 [3] of 7.62.
Molecule `CCC1(C#N)CCN(C(=O)c2cnn(-c3nn4cccc4c(=O)[nH]3)c2C)CC1` [Q-0586] has a pIC50 [1] of 8.70, a pIC50 [2] of 6.70 and a pIC50 [3] of 6.89.
`Cc1c(C(=O)N2CCC(S(=O)(=O)c3ccc(F)c(F)c3)CC2)cnn1-c1nn2cccc2c(=O)[nH]1` [Q-0591] was tested, and the pIC50 [1] was 8.52, the pIC50 [2] was 7.00 and the pIC50 [3] was 7.35.
`Cc1c(C(=O)N2CCC3(CC2)CC3)cnn1-c1nc2c(c(=O)[nH]1)CCC2` [Q-0635] was tested, and the pIC50 [1] was 8.70, the pIC50 [2] was 7.00 and the pIC50 [3] was 7.27.
Molecule `Cc1c(C(=O)N2CCC3(CC2)CC(F)(F)C3)cnn1-c1nn2cccc2c(=O)[nH]1` [Q-0690] has a pIC50 [1] of 8.70, a pIC50 [2] of 6.70 and a pIC50 [3] of 7.14.
For `Cc1c(C(=O)N2CCN3CCC[C@@H]3C2)cnn1-c1nn2cccc2c(=O)[nH]1` [Q-0693], the pIC50 [1] was 8.52, the pIC50 [2] was 6.10 and the pIC50 [3] was 6.35.
With `O=C(c1cnn(-c2nn3cccc3c(=O)[nH]2)c1)N1CCN2CCC[C@@H]2C1` [Q-0703] the pIC50 [1] was 8.40, the pIC50 [2] was 6.22 and the pIC50 [3] was 6.72.
`Cc1c(C(=O)N2CCC(C(O)(C(F)(F)F)C(F)(F)F)CC2)cnn1-c1nn2cccc2c(=O)[nH]1` [Q-0721] was tested, and the pIC50 [1] was 9.00, the pIC50 [2] was 7.46 and the pIC50 [3] was 7.59.
With `Cc1c(C(=O)N2CCN(CC(F)(F)F)CC2)cnn1-c1nc2c(c(=O)[nH]1)CCC2` [Q-0737] the pIC50 [1] was 8.30, the pIC50 [2] was 6.70 and the pIC50 [3] was 7.43.
`Cc1c(C(=O)N2CCN(C(=O)OC(C)(C)C)CC2)cnn1-c1nn2cccc2c(=O)[nH]1` [Q-0750] showed a pIC50 [1] of 8.52, a pIC50 [2] of 6.30 and a pIC50 [3] of 6.74.
With `Cc1c(C(=O)N2CCN(CC(F)(F)F)CC2)cnn1-c1nn2cccc2c(=O)[nH]1` [Q-0760] the pIC50 [1] was 9.00, the pIC50 [2] was 6.40 and the pIC50 [3] was 7.12.
In the case of `Cc1c(C(=O)N2CCC3(CC2)CC3(F)F)cnn1-c1nn2cccc2c(=O)[nH]1` [Q-0761], the pIC50 [1] was 8.70, the pIC50 [2] was 6.70 and the pIC50 [3] was 6.85.
Molecule `Cc1c(C(=O)N2CCN(C3CC3)CC2)cnn1-c1nn2cccc2c(=O)[nH]1` [Q-0764] has a pIC50 [1] of 8.70, a pIC50 [2] of 6.52 and a pIC50 [3] of 7.00.
`Cc1c(C(=O)N2CCC3(CC2)CN(C(=O)OC(C)(C)C)C3)cnn1-c1nn2cccc2c(=O)[nH]1` [Q-0768] gave a pIC50 [1] of 8.70, a pIC50 [2] of 6.70 and a pIC50 [3] of 7.35.
`Cc1c(C(=O)N2CC3(CCN(C(=O)OC(C)(C)C)CC3)C2)cnn1-c1nn2cccc2c(=O)[nH]1` [Q-0772] showed a pIC50 [1] of 9.00, a pIC50 [2] of 6.70 and a pIC50 [3] of 7.14.
`CCC1(C#N)CCN(C(=O)c2nnn(-c3nn4cccc4c(=O)[nH]3)c2C)CC1` [Q-0777] was tested, and the pIC50 [1] was 9.00, the pIC50 [2] was 6.52 and the pIC50 [3] was 7.26.
`Cc1c(C(=O)N2CCC(C(C)(O)C(F)(F)F)CC2)cnn1-c1nn2cccc2c(=O)[nH]1` (centres unmarked) [Q-0782] was tested, and the pIC50 [1] was 9.00, the pIC50 [2] was 7.00 and the pIC50 [3] was 7.42.
`Cc1c(C(=O)N2CCC(OCC(F)(F)F)CC2)cnn1-c1nn2cccc2c(=O)[nH]1` [Q-0784] was tested, and the pIC50 [1] was 9.00, the pIC50 [2] was 6.52 and the pIC50 [3] was 6.92.
In the case of `Cc1c(C(=O)N2CC(F)(F)C2)cnn1-c1nn2cccc2c(=O)[nH]1` [Q-0789], the pIC50 [1] was 8.10, the pIC50 [2] was 5.60 and the pIC50 [3] was 6.36.
Work on `Cc1c(C(=O)N2CCC2)cnn1-c1nn2cccc2c(=O)[nH]1` [Q-0794] yielded a pIC50 [1] of 8.00, a pIC50 [2] of 5.46 and a pIC50 [3] of 6.39.
`Cc1c(C(=O)N2C3CCC2CC(O)(c2ccccc2)C3)cnn1-c1nn2cccc2c(=O)[nH]1` (centres unmarked) [Q-0797] gave a pIC50 [1] of 9.00, a pIC50 [2] of 7.00 and a pIC50 [3] of 7.57.
With `Cc1noc(C)c1S(=O)(=O)N1CCN(C(=O)c2cnn(-c3nn4cccc4c(=O)[nH]3)c2C)CC1` [Q-1848] the pIC50 [1] was 9.00 and the pIC50 [3] was 6.68.
In the case of `Cc1c(C(=O)N2CCN(S(=O)(=O)c3cccnc3)CC2)cnn1-c1nn2cccc2c(=O)[nH]1` [Q-1857], the pIC50 [1] was 9.00 and the pIC50 [3] was 6.82.
`Cc1c(C(=O)N2CCN(S(=O)(=O)c3cc(Cl)sc3Cl)CC2)cnn1-c1nn2cccc2c(=O)[nH]1` [Q-1858] gave a pIC50 [1] of 9.00 and a pIC50 [3] of 6.59.
`Cc1c(C(=O)N2CCN(S(=O)(=O)c3cccc4cccnc34)CC2)cnn1-c1nn2cccc2c(=O)[nH]1` [Q-1859] showed a pIC50 [1] of 9.00 and a pIC50 [3] of 6.80.
For `Cc1c(C(=O)N2CCN(S(=O)(=O)c3ccccc3OC(F)(F)F)CC2)cnn1-c1nn2cccc2c(=O)[nH]1` [Q-1861], the pIC50 [1] was 9.00 and the pIC50 [3] was 7.01.
`Cc1c(C(=O)N2CCN(S(=O)(=O)c3ccc(Cl)nc3)CC2)cnn1-c1nn2cccc2c(=O)[nH]1` [Q-1862] gave a pIC50 [1] of 8.70 and a pIC50 [3] of 6.60.
`Cc1c(C(=O)N2CCN(S(=O)(=O)c3ccc(F)cc3F)CC2)cnn1-c1nn2cccc2c(=O)[nH]1` [Q-1866] gave a pIC50 [1] of 8.70 and a pIC50 [3] of 7.10.
`COC(=O)c1sccc1S(=O)(=O)N1CCN(C(=O)c2cnn(-c3nn4cccc4c(=O)[nH]3)c2C)CC1` [Q-1875] was tested, and the pIC50 [1] was 9.00 and the pIC50 [3] was 6.96.
`Cc1c(C(=O)N2CCN(S(=O)(=O)c3ccc(F)cc3Cl)CC2)cnn1-c1nn2cccc2c(=O)[nH]1` [Q-1876] gave a pIC50 [1] of 9.00 and a pIC50 [3] of 6.96.
Work on `Cc1c(C(=O)N2CCN(S(=O)(=O)c3cccc4nsnc34)CC2)cnn1-c1nn2cccc2c(=O)[nH]1` [Q-1882] yielded a pIC50 [1] of 8.70 and a pIC50 [3] of 7.04.
Work on `Cc1c(C(=O)N2CCC(C(F)(F)F)CC2)c(C(N)=O)nn1-c1nc2c(c(=O)[nH]1)CCC2` [Q-1884, 5-methyl-1-(4-oxo-4,5,6,7-tetrahydro-3H-cyclopenta[d]pyrimidin-2-yl)-4-(4-(trifluoromethyl)piperidine-1-carbonyl)-1H-pyrazole-3-carboxamide] yielded a pIC50 [1] of 9.00 and a pIC50 [3] of 7.08.
For `Cc1c(C(=O)N2CCN(S(=O)(=O)C(F)(F)F)CC2)cnn1-c1nn2cccc2c(=O)[nH]1` [Q-1886], the pIC50 [1] was 8.70 and the pIC50 [3] was 6.96.
`Cc1c(C(=O)N2CCN(C(C)C(F)(F)F)CC2)nnn1-c1nn2cccc2c(=O)[nH]1` (centres unmarked) [Q-1889] gave a pIC50 [1] of 9.00 and a pIC50 [3] of 7.44.
`Cc1c(C(=O)N2CCn3cccc3C2)cnn1-c1nn2cccc2c(=O)[nH]1` [Q-1925] showed a pIC50 [1] of 9.00 and a pIC50 [3] of 6.77.
Work on `Cc1c(C(=O)N2CCc3[nH]ncc3C2)cnn1-c1nn2cccc2c(=O)[nH]1` [Q-1932] yielded a pIC50 [1] of 8.52 and a pIC50 [3] of 5.57.
Molecule `Cc1c(C(=O)N2CC(c3ccnc(C(F)F)c3)C2)cnn1-c1nn2cccc2c(=O)[nH]1` [Q-2008] has a pIC50 [1] of 8.70 and a pIC50 [3] of 6.52.
For `Cc1c(C(=O)N2CC(c3ccnc(C(F)(F)F)c3)C2)cnn1-c1nn2cccc2c(=O)[nH]1` [Q-2009], the pIC50 [1] was 8.70 and the pIC50 [3] was 6.43.
`Cc1c(C(=O)N2CCN(CC3CCCO3)CC2)cnn1-c1nn2cccc2c(=O)[nH]1` (centres unmarked) [Q-2016] was tested, and the pIC50 [1] was 9.00 and the pIC50 [3] was 7.35.
Work on `Cc1c(C(=O)N2CC(S(=O)(=O)c3ccccc3)C2)cnn1-c1nn2cccc2c(=O)[nH]1` [Q-2017] yielded a pIC50 [1] of 8.70 and a pIC50 [3] of 6.77.
